The target of test [1] is T1, Muscarinic acetylcholine receptor M2 (Homo sapiens, UniProt P08172).
T1 sequence (P08172 whole entry): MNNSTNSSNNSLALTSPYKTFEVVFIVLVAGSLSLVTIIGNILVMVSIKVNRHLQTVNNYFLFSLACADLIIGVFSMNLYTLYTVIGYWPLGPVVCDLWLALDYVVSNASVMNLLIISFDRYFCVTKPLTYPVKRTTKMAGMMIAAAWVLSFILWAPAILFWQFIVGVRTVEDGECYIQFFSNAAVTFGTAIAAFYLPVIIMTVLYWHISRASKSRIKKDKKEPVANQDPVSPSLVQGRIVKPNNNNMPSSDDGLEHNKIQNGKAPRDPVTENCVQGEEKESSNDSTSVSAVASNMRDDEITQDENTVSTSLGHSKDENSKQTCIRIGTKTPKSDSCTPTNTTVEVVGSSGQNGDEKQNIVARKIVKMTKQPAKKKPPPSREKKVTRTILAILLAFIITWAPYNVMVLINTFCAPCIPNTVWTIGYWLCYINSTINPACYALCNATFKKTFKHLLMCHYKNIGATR
The format is functional, cell-based.

Test [2] has as its target Beta-1 adrenergic receptor (Homo sapiens, UniProt P08588). The format is functional.
For another test, the target named is Vasopressin V1a receptor (Homo sapiens, UniProt P37288).
Vasopressin V1a receptor, sequence (P37288 whole entry): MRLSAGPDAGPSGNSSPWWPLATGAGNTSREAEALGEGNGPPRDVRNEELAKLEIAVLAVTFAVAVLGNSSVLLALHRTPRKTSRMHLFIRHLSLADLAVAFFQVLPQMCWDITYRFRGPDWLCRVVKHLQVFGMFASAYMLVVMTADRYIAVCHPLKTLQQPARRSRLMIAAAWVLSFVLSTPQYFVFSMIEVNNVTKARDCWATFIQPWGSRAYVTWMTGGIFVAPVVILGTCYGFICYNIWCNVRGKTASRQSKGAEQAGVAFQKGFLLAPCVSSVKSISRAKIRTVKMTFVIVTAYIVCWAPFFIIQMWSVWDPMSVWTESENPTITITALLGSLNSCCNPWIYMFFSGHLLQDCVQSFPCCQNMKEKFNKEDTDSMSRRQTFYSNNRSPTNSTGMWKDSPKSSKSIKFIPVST
In a further test the target is T2, Adenosine receptor A3 (Homo sapiens, UniProt P0DMS8).
T2 sequence (P0DMS8 whole entry): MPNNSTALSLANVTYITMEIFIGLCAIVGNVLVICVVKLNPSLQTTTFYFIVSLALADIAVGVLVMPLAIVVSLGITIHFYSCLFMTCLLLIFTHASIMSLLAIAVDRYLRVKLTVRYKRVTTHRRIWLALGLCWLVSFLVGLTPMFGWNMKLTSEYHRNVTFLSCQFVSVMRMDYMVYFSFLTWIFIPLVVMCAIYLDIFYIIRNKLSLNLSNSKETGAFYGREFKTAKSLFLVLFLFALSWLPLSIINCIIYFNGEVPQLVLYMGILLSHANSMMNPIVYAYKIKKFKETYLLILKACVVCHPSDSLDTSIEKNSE

In test [3] the target is T3, Amine oxidase [flavin-containing] A (Homo sapiens, UniProt P21397).
T3 sequence (P21397 whole entry): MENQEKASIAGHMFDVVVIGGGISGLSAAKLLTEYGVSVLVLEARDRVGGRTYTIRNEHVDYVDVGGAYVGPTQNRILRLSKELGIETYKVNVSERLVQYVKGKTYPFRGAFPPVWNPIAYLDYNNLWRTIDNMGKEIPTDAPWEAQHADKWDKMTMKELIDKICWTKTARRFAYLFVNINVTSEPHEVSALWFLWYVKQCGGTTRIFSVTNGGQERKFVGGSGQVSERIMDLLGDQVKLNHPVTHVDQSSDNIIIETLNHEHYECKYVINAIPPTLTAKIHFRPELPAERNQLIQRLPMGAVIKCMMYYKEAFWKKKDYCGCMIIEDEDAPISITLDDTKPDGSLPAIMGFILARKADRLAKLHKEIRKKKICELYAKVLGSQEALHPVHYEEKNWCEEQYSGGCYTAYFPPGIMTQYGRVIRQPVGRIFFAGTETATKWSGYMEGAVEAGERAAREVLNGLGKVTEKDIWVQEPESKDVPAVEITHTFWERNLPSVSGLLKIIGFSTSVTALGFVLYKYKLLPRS
It is filed as functional.

In test [4] the target is Sodium-dependent noradrenaline transporter (Homo sapiens, UniProt P23975).
Sodium-dependent noradrenaline transporter, sequence (P23975 whole entry): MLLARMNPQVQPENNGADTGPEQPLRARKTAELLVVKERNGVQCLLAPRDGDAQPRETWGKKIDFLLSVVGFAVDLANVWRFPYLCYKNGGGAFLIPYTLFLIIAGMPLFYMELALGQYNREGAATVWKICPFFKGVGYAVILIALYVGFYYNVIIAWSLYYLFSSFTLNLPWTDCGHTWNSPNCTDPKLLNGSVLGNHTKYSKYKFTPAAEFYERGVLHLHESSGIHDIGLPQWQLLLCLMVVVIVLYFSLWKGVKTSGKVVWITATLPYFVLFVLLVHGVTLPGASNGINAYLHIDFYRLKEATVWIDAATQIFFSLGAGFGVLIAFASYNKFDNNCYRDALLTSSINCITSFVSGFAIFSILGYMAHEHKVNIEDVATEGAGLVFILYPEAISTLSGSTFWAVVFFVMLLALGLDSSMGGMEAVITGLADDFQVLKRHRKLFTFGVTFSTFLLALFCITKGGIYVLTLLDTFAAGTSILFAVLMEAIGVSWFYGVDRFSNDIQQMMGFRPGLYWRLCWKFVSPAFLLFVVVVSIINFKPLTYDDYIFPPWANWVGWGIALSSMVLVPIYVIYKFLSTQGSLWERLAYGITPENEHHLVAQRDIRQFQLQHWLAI
Test [5] addresses Gamma-aminobutyric acid receptor subunit alpha-1 (Rattus norvegicus, UniProt P62813). The format is functional.
In test [6] the target is T4, Neuropeptide Y receptor type 1 (Homo sapiens, UniProt P25929).
T4 sequence (P25929 whole entry): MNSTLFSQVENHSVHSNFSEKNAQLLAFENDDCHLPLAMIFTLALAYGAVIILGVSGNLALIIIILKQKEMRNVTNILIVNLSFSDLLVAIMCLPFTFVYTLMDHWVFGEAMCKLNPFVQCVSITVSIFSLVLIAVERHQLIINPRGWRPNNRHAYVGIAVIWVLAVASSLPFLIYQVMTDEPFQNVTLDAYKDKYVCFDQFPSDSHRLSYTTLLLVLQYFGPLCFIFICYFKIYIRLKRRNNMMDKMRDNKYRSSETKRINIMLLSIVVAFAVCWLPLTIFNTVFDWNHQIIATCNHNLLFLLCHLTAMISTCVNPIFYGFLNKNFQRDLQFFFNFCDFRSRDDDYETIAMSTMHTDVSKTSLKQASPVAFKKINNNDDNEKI

For the next test, the target named is Vasopressin V2 receptor (Homo sapiens, UniProt P30518).
Vasopressin V2 receptor, sequence (P30518 whole entry): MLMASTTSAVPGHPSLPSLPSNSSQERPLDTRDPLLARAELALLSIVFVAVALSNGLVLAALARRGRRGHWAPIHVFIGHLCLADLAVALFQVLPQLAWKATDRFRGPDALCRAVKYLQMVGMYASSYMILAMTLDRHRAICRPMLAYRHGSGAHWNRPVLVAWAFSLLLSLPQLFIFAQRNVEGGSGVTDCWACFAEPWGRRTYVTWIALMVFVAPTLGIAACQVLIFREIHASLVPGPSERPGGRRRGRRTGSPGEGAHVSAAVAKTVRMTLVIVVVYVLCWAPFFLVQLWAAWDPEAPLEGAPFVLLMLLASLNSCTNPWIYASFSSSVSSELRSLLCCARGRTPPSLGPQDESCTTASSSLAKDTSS
In test [7] the target is T5, Alpha-1A adrenergic receptor (Homo sapiens, UniProt P35348).
T5 sequence (P35348 whole entry): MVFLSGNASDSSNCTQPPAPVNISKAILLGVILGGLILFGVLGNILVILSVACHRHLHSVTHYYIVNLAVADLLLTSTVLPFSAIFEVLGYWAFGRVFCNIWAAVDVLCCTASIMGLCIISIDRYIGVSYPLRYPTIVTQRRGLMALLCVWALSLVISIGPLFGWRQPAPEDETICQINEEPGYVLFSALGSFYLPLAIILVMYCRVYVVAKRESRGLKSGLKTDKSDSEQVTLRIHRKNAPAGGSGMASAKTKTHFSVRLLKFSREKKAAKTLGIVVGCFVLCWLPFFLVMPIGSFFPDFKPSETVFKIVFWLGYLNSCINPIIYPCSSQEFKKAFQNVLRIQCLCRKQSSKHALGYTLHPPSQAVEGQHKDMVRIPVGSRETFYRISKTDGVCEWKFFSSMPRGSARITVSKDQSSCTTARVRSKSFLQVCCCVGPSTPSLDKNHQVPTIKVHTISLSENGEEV
The format is functional, cell-based.

In test [8] the target is T1, Muscarinic acetylcholine receptor M2. The format is functional, cell-based. The source holds these as a separate data set.

Usually AC50 stands for the concentration at which the activity in the assay is half-maximal. Low readings indicate activity at low concentration, high ones activity only at high concentration.
Note: assay procedure not described here.

Gamma-aminobutyric acid receptor subunit alpha-1, sequence (P62813 whole entry): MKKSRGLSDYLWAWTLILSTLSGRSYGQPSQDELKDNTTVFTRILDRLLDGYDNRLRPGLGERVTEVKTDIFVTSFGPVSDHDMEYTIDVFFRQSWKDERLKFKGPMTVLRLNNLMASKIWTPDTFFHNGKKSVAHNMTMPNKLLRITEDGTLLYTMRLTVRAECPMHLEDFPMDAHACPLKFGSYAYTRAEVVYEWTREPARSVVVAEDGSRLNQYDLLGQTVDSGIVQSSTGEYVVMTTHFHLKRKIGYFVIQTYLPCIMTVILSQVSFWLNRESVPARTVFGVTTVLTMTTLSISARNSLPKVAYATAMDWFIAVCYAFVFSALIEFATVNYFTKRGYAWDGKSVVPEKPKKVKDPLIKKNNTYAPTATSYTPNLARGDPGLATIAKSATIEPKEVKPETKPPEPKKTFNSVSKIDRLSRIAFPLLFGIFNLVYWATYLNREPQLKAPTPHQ
Beta-1 adrenergic receptor, sequence (P08588 whole entry): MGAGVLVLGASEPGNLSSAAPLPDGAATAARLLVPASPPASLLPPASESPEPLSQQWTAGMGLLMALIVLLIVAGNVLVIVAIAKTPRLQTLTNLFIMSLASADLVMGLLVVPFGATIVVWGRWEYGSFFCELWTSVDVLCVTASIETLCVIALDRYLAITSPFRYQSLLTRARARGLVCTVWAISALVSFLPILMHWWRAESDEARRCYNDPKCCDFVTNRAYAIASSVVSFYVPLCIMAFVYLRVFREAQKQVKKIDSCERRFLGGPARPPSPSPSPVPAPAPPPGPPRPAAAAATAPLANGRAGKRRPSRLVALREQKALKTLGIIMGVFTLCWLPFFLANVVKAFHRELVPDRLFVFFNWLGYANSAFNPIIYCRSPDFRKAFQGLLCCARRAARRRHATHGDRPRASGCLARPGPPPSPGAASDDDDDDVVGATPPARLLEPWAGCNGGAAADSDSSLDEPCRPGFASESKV

For `CN(C)[C@@H]1C(O)=C(C(=O)NCN2CCCC2)C(=O)[C@@]2(O)C(O)=C3C(=O)c4c(O)cccc4[C@@](C)(O)[C@H]3C[C@@H]12` [ROLITETRACYCLINE], the AC50 (in test [1]; in test [2]; on Vasopressin V1a receptor; on Adenosine receptor A3; in [3]; in test [4]) was above 10 µM throughout. Also, the AC50 was above 10 µM in [5]; above 10 µM in test [6]; above 10 µM on Vasopressin V2 receptor; above 30 µM in test [7]; above 10 µM in [8].
Consider `C[C@]12CCC(=O)C=C1C=C[C@@H]1[C@@H]2CC[C@@]2(C)[C@H]1CC[C@@]21CCC(=O)O1` [CANRENONE], for which the AC50 in [1] was 20 µM; in test [2] it was above 30 µM; on Vasopressin V1a receptor, above 30 µM; on Adenosine receptor A3, above 30 µM; in [3], above 30 µM; in test [4], above 30 µM. The AC50 (in [5]; in [6]; at Vasopressin V2 receptor; in [7]; in test [8]) was above 30 µM in each case.
Consider `C[C@]12CCC(=O)C=C1[C@@H]1C[C@@H]1[C@H]1[C@@H]3[C@@H]4C[C@@H]4[C@@]4(CCC(=O)O4)[C@@]3(C)CC[C@@H]12` [DROSPIRENONE], for which the AC50 in [1] was above 10 µM; in test [2] it was above 30 µM; on Vasopressin V1a receptor, above 30 µM; at Adenosine receptor A3 it was above 30 µM; in [3], above 30 µM; in test [4], above 30 µM. The AC50 is above 30 µM in test [5]; above 30 µM in test [6]; above 30 µM on Vasopressin V2 receptor; above 30 µM in [7]; 13 µM in [8].
On to `N=C(N)NC(=O)c1nc(Cl)c(N)nc1N` [AMILORIDE], for which the concentration at half-maximal activity (AC50) was above 30 µM in test [1]; above 30 µM in test [2]; above 30 µM at Vasopressin V1a receptor; above 30 µM at Adenosine receptor A3; 4.41 µM in test [3]; above 30 µM in [4]. For the same compound, the AC50 (in [5]; in test [6]; on Vasopressin V2 receptor; in test [7]; in [8]) was above 30 µM each time.

Values taken from ChEMBL document CHEMBL5291721, “A preclinical secondary pharmacology resource illuminates target-adverse drug reaction associations of marketed drugs” (Nat Commun, 2023).
